Results reported in paper PMC6758725, “Novel 4-arylaminoquinazolines bearing N,N-diethyl(aminoethyl)amino moiety with antitumour activity as EGFR^wt-TK inhibitor” (Journal of Enzyme Inhibition and Medicinal Chemistry, 2019).
Where two headings read alike, the source gives them in different places.

Assays:
[1] = test system: SW480 cells; experiment: MTT antiproliferative assay, SW480 cells; assay type: cell-based; conditions: Homo sapiens, read-out: IC50 (µM) SW480
Procedure: (§1) Methyl thiazolyl tetrazolium (MTT) colorimetric assay (MTT assay)[17]^,[20] was used to evaluated the antiproliferative activities of these novel compounds against four human tumour cell lines including SW480, A549, A431 and NCI-H1975.
(§2) Figure 2. […] (A) SW480 cells, (B) A549 cells, (C) A431 cells, (D) NCI-H1975 cells. […] All error bars were represented in mean ± SE.
(§3) The effect of compounds on cell proliferation was determined using the MTT (3–(4,5-dimethylthiazol-2-yl)-2,5-diphenyltetrazolium bromide) method, which was carried out as previously described[12]^,[16].

[2] = test system: A549 cells; experiment: MTT antiproliferative assay, A549 cells; assay type: cell-based; conditions: Homo sapiens, read-out: IC50 (µM) A549
Procedure: as §1, §2, §3

[3] = test system: A431 cells; experiment: MTT antiproliferative assay, A431 cells; assay type: cell-based; conditions: Homo sapiens, read-out: IC50 (µM) A431
Procedure: as §1, §2, §3

[4] = test system: NCI-H1975 cells; experiment: MTT antiproliferative assay, NCI-H1975 cells; assay type: cell-based; conditions: Homo sapiens, read-out: IC50 (µM) NCI-H1975
Procedure: as §1, §2, §3

[5] = test system: A549 cells; experiment: Cell cycle analysis (PI, flow cytometry); assay type: cell-based, human; conditions: 48 h; for percentage of cells in G0/G1 phase: untreated 51.97%
Description: Figure 5. Effect of compound 6a on the cell cycle phase distribution in A549 cells. (A) Representative profiles were obtained by FACS, (B) histograms of percentages of percentages of cell populations in the G0/G1, S and G2/M phase in each group from (A) analysed by GraphPad Prism5. […] Percentage of cells in G0/G1, S and G2/M phases were indicated. All values were expressed as mean ± SE. *p < .05, **p < .01 and ***p < .001 indicate significant differences compared with the control at the same phase.
Following treatment with different concentrations of compound 6a, the distribution of cell cycle was measured using cell cycle detection kit (KeyGEN BioTECH, Nanjing, China), according to the manufacturer’s instructions. The cell cycle of the treated cells was then detected by flow cytometry using ACEA NovoCyte.

[6] = target: wild type epidermal growth factor receptor tyrosine kinase (EGFR^wt-TK) (Homo sapiens, UniProt P00533); experiment: In vitro EGFR^wt tyrosine kinase ELISA assay
Chain of wild type epidermal growth factor receptor tyrosine kinase (EGFR^wt-TK) (P00533 25-1210): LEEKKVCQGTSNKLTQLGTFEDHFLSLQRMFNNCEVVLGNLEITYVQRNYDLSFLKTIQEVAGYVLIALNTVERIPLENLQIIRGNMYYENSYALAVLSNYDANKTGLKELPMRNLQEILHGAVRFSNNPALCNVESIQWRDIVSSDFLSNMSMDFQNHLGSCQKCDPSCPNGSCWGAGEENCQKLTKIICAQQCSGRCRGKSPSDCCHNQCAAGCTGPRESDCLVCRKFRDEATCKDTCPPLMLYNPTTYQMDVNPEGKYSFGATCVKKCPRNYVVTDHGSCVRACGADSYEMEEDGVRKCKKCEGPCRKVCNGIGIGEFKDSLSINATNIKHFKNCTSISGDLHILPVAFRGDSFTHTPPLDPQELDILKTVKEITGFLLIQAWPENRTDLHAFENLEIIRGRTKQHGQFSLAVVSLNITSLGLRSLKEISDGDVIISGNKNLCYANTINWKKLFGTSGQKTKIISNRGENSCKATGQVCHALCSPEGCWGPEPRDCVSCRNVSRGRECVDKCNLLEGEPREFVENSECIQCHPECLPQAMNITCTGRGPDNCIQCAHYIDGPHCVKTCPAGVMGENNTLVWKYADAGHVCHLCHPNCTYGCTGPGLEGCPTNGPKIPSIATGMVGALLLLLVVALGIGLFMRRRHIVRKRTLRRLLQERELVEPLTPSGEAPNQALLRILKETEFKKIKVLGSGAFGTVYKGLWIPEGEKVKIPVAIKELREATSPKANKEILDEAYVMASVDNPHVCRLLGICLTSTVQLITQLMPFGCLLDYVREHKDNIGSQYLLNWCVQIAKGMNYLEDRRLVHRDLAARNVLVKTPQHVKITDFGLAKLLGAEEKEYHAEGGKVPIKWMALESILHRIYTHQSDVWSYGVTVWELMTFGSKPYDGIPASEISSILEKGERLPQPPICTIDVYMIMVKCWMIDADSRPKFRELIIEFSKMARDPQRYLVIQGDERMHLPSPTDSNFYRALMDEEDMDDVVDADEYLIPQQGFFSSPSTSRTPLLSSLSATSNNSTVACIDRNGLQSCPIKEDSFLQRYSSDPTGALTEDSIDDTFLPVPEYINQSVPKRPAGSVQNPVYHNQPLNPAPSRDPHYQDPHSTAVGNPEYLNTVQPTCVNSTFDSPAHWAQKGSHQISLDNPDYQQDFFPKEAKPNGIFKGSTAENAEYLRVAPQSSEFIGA

[7] = test system: A549 cells; experiment: Cell apoptosis analysis (Annexin V-FITC/PI, FACS); assay type: cell-based, human; conditions: for numbers of late apoptotic cells compared with control groups / numbers of necrosis cells compared with control groups: 48 h
Procedure: The process of controlled cellular death known as apoptosis has an important central role not only in normal homeostatic maintenance of tissues, but also in numerous diseases such as cancer, neurodegenerative, autoimmune, and cardiovascular diseases. After treatment by compound 6a for 48 h, the apoptosis of A549 cells were measured by fluorescence-activated cell sorter (FACS) analysis with annexin V-fluorescein isothiocyanate (FITC) and propidium iodide (PI) labelling.
Figure 4. Effect of compound 6a on cell apoptosis in A549 cells. (A) Representative density plots were obtained by FACS, (B) histograms of percentages of apoptotic cells in each group from (A) analysed by GraphPad Prism5.
Following treatment with different concentrations of compound 6a, the apoptosis of A549 cells was measured using Annexin V-FITC/PI apoptosis detection kit (KeyGEN BioTECH, Nanjing, China), according to the manufacturer’s instructions. Apoptosis of the treated cells was then detected by flow cytometry using ACEA NovoCyte.

[8] = SW480, MTT, 72 h of treatment, mean ± SD of at least three independent experiments
[9] = A549, MTT, 72 h of treatment, mean ± SD of at least three independent experiments
[10] = A-431, MTT, 72 h of treatment, mean ± SD of at least three independent experiments
[11] = NCI-H1975, MTT, 72 h of treatment, mean ± SD of at least three independent experiments

Compound | IC50 [1, 8] | IC50 [2, 9] | IC50 [3, 10] | IC50 [4, 11] | melting point | numbers of late apoptotic cells compared with control groups ([7]; A549, 20 µM) | numbers of necrosis cells compared with control groups ([7]; A549, 20 µM) | further results
C#Cc1cccc(Nc2ncnc3ccc(-c4ccc(CNCCN(CC)CC)o4)cc23)c1 [Compound 6c, 4–(3-ethynylphenylamino)-6-(5-((N,N-diethyl(aminoethyl))aminomethyl)furan-2-yl)quinazoline] | 10.8 ± 1.34 µM | 12.1 ± 0.37 µM | 2.59 ± 0.15 µM | 15.6 ± 1.41 µM | 81.4 to 82.3 °C |  |  | 
CCN(CC)CCNCc1ccc(-c2ccc3ncnc(Nc4ccc(OCc5cccc(F)c5)c(Cl)c4)c3c2)o1 [Compound 6a, 4–(3-chloro-4-(3-fluorobenzyloxy)phenylamino)-6–(5-((N,N-diethyl(aminoethyl))aminomethyl)furan-2-yl)quinazoline] | 6.67 ± 0.95 µM | 5.46 ± 0.19 µM | 2.21 ± 0.25 µM | 9.79 ± 0.07 µM |  | significantly higher | significantly higher | percentage of cells in G0/G1 phase ([5]; A549, 2.5 µM, PI): 54.15%; percentage of cells in G0/G1 phase ([5]; A549, 5 µM, PI): 55.44%; percentage of cells in G0/G1 phase ([5]; A549, 10 µM, PI): 51.77%; percentage of cells in G0/G1 phase ([5]; A549, 20 µM, PI): 62.45%; effect on cell cycle of A549 cells ([5]; A549, 20, 10, 5 and 2.5 µM): arrested in the G0/G1 phase; IC50 [6]: 15.6 nM; numbers of late apoptotic cells compared with control groups ([7]; A549, 10 µM): significantly higher; early apoptosis of A549 cells ([7]; A549, 48 h, tested concentrations 20-2.5 µM, versus control): not significantly influenced
CS(=O)(=O)CCNCc1ccc(-c2ccc3ncnc(Nc4ccc(OCc5cccc(F)c5)c(Cl)c4)c3c2)o1 [Lapatinib, reference compound] |  |  |  |  |  | significantly higher | significantly higher | percentage of cells in G2/M phase ([5]; A549, 20 µM, PI): 19.41%; percentage of cells in S phase ([5]; A549, 20 µM, PI): 19.93%; IC50 ([1]; SW480, 72 h): 12.6 ± 1.35 µM; IC50 ([2]; A549, 72 h): 14.9 ± 1.21 µM; IC50 ([3]; A-431, 72 h): 4.8 ± 0.71 µM; IC50 ([4]; NCI-H1975, 72 h): 12.7 ± 0.73 µM

Further lines, with some results ahead:

IC50 [1, 8] | IC50 [2, 9] | IC50 [3, 10] | IC50 [4, 11] | melting point | Compound | numbers of late apoptotic cells compared with control groups ([7]; A549, 20 µM) | numbers of necrosis cells compared with control groups ([7]; A549, 20 µM) | further results
4.21 ± 1.16 µM | 4.1 ± 0.66 µM | 2.09 ± 1.01 µM | 5.13 ± 0.55 µM | 89.9 to 91.3 °C | C/C=C/c1ccc(Nc2ncnc3ccc(-c4ccc(CNCCN(CC)CC)o4)cc23)cc1 [Compound 6d, 6-(5-((N,N-diethylethyl)aminomethyl)furan-2-yl)-4–(4-(E)-(propen-1-yl)phenylamino)quinazoline] |  |  | 
14.9 ± 2.43 µM | 18 ± 0.62 µM | 3.92 ± 1.1 µM | 17.55 ± 0.03 µM | 98.3 to 99.8 °C | CCN(CC)CCNCc1ccc(-c2ccc3ncnc(Nc4ccc(F)c(Cl)c4)c3c2)o1 [Compound 6b, 4–(3-chloro-4-fluorophenylamino)-6-(5-((N,N-diethyl(aminoethyl))aminomethyl)furan-2-yl)quinazoline] |  |  | 
